Laboratory results taken from patent publication US8536120B2 (The Administrators of The Tulane Educational Fund, priority 2006, dated 2013).

Target: Ghrelin/GHRP/GHS Receptor (Rattus norvegicus, UniProt O08725)
Assay: In vitro cell culture method: GH release from cell culture of pituitary cells, peptide alone or plus stimulator
Format: cell-based
Design: from cell culture of pituitary cells; endogenous in cells; host or cells: dispersed primary rat anterior pituitary cells, 4 days in culture
Details: for GH release, first line of entry (mark P + S): stimulator 1 ng/ml
Procedure: The peptides were synthesized by the solid phase method and purified by HPLC. GH was determined by Radioimmunoassay (RIA).
In vitro GH Release-Female rats of the CD-1 strain were housed in a constant temperature room at 24° C. with 14 h light and 10 h darkness. The rats were fed Purina Rat chow and water at libitum. All studies were started between 0800-1000 hours. Pituitaries of mature female Sprague Dawley rats were rapidly removed after decapitation, neurointermediate lobe discarded and then placed in a pH 7.4 buffer. The pituitaries were cut into ˜3-mm pieces and then transferred to a flask containing HEPS buffer with trypsin and incubated at 37° C. Cells were triturated several times during this period. After dispersion, the cells were collected by centrifugation, wash with DMEM and placed into culture well. Cell cultures were maintained for 4 days at 37° with 8% CO2 added to the incubator atmosphere. After 4 days in culture, cells were washed with lactated Ringer's solution adjusted to pH 7.2-7.4 and then vehicle, peptide alone or peptide plus stimulator was added to media. Incubation time was 60-120 minutes after which media was removed from each well for GH determination. The GH RIA reagents were distributed by the NIH. Control data was collected from cell cultures treated with only the corresponding vehicle in the absence of peptide or stimulator. Control stimulated data was collected from cell cultures treated with stimulator alone in the absence of any peptide.

Ghrelin/GHRP/GHS Receptor, sequence (O08725 whole entry): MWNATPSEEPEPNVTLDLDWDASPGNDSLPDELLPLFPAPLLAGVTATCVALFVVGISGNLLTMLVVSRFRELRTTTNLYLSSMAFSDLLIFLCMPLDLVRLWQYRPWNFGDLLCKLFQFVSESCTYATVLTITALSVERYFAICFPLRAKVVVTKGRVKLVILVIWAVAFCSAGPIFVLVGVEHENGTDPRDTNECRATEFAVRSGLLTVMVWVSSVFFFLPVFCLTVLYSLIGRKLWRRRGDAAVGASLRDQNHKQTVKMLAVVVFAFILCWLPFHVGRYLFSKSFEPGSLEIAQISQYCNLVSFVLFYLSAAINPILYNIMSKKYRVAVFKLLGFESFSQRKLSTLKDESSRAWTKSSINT

SMILES | GH release, first line of entry (mark P + S) (Table 11, 10 μg/ml) [ng/mL] | GH release, second line of entry (no mark) (Table 10, 10 μg/ml) [ng/mL] | GH release, first line of entry (mark P + S) (Table 10, 10 μg/ml) [ng/mL] | GH release, second line of entry (no mark) (Table 10, 30 μg/ml) [ng/mL] | GH release, first line of entry (mark P + S) (Table 10, 30 μg/ml) [ng/mL] | further results
COc1ccccc1C1CCN(C(=O)[C@@H](Cc2c[nH]c3ccccc23)NC(=O)C(C)(C)N)CC1 [(R)—N-(3-(1H-indol-3-yl)-1-(4-(2-methoxyphenyl)piperidin-1-yl)-1-oxopropan-2-yl)-2-amino-2-methylpropanamide] | 365 ± 2 |  |  |  |  | GH release, second line of entry (no mark) (Table 11, 10 μg/ml): 441 ± 21 ng/mL; GH release, second line of entry (no mark) (Table 11, 30 μg/ml): 384 ± 16 ng/mL; GH release, first line of entry (mark P + S) (Table 11, 30 μg/ml): 375 ± 30 ng/mL
NCC[C@H](N)C(=O)N[C@H](COCc1ccc2ccccc2c1)C(=O)N1CCC(c2ccccc2)CC1 [(S)-2,4-diamino-N—((R)-3-(naphthalen-2-ylmethoxy)-1-oxo-1-(4-phenylpiperidin-1-yl)propan-2-yl)butanamide] | 794 ± 34 |  |  |  |  | GH release, second line of entry (no mark) (Table 11, 10 μg/ml): 644 ± 33 ng/mL; GH release, second line of entry (no mark) (Table 11, 30 μg/ml): 529 ± 20 ng/mL; GH release, first line of entry (mark P + S) (Table 11, 30 μg/ml): 504 ± 20 ng/mL
CC(=O)N[C@@H](COCc1ccccc1)C(=O)N[C@@H](CCCCN)C(=O)N[C@H](Cc1c[nH]c2ccccc12)C(=O)N1CCC(c2ccccc2)CC1 [(S)—N—((R)-3-(1H-indol-3-yl)-1-oxo-1-(4-phenylpiperidin-1-yl)propan-2-yl)-2-((S)-2-acetamido-3-(benzyloxy)propanamido)-6-aminohexanamide] | 245 ± 16 |  |  |  |  | GH release, first line of entry (mark P + S) (Table 11, 1 μg/ml): 680 ± 13 ng/mL; GH release, first line of entry (mark P + S) (Table 11, 3 μg/ml): 489 ± 41 ng/mL
CC(=O)NCCCC[C@H](NC(=O)[C@@H](N)COCc1ccccc1)C(=O)N[C@@H](Cc1c[nH]c2ccccc12)C(=O)N1CCC(c2ccccc2)CC1 [(S)—N—((S)-3-(1H-indol-3-yl)-1-oxo-1-(4-phenylpiperidin-1-yl)propan-2-yl)-6-acetamido-2-((S)-2-amino-3-(benzyloxy)propanamido)hexanamide] |  | 571 ± 32 | 388 ± 41 | 399 ± 24 | 273 ± 39 | 
N[C@H](COCc1ccccc1)C(=O)N1CCN(c2ccccc2)CC1 [D Ser(BZL)-N′-phenyl-N-piperazinamide, (R)-2-amino-3-(benzyloxy)-1-(4-phenylpiperazin-1-yl)propan-1-one] |  | 719 ± 26 | 585 ± 10 | 435 ± 0 | 368 ± 2 | 
N[C@H](Cc1c[nH]c2ccccc12)C(=O)N1CCC(c2ccccc2)CC1 [DTrp-4-phenylpiperdinamide, (R)-2-amino-3-(1H-indol-3-yl)-1-(4-phenylpiperidin-1-yl)propan-1-one] |  | 344 ± 6 | 520 ± 61 | 486 ± 29 | 577 ± 24 | GH release, second line of entry (no mark) (Table 10, 1 μg/ml): 1085 ± 1 ng/mL; GH release, first line of entry (mark P + S) (Table 10, 1 μg/ml): 815 ± 26 ng/mL; GH release, second line of entry (no mark) (Table 10, 3 μg/ml): 917 ± 4 ng/mL; GH release, first line of entry (mark P + S) (Table 10, 3 μg/ml): 390 ± 35 ng/mL
NCCCC[C@@H](NC(=O)[C@@H](CO)NC(=O)c1ccccc1)C(=O)N[C@@H](Cc1c[nH]c2ccccc12)C(=O)N1CCC(c2ccccc2)CC1 [N—((R)-1-((R)-1-((S)-3-(1H-indol-3-yl)-1-oxo-1-(4-phenylpiperidin-1-yl)propan-2-ylamino)-6-amino-1-oxohexan-2-ylamino)-3-hydroxy-1-oxopropan-2-yl)benzamide] |  | 353 ± 10 | 369 ± 30 |  |  | GH release, second line of entry (no mark) (Table 10, 3 μg/ml): 432 ± 25 ng/mL; GH release, first line of entry (mark P + S) (Table 10, 3 μg/ml): 393 ± 54 ng/mL
